Data set [1] relates to H1650 lung cancer cells. Nature of the data set: Cell viability assay (MTT), H1650 lung cancer cells. Conditions: Homo sapiens, NCI-H1650; for GI50: H1650 cells; for IC50: H1650 lung cancer cells, 48 h drug treatment, MTT. The format is cell-based. The procedure:
Cell Viability Assays (IC50 Determination)
Cell viability assays were performed according to Denizot, F. and R. Lang, Journal of Immunological Methods, 1986. 89(22): p. 271-277. H1650 lung cancer cells were plated at 150,000 cells per well in a 12 well plate. Twenty-four hours after plating, cells were treated as described with increasing concentrations of drug and control. Forty-eight hours after drug treatment, cells were treated with 100 μL of 3-(4,5-Dimethylthiazol-2-yl)-2,5-diphenyltetrazolium bromide (MTT) and incubated for 2 hours at 37 C. The MTT solution was subsequently replaced with 300 μL of n-propyl alcohol and re-aliquoted to a 96 well plate. Spectrophotometric analysis of each solution was performed using a 96 well plate reader at 600 nm in triplicate.

The subject of data set [2] is A549luc cells. In words: Colony formation (clonogenic) assay, A549luc cells. It is filed as cell-based. Conditions: Homo sapiens, 168 h; A549 luc, harvested 7 days after initial treatment. The procedure:
(§1) Protocol for clonogenic assay follows Sangodkar et al., J Clin Invest 2012; 122:2637-51.
(§2) Cell culture and staining: For both A549luc and H1650 cells, 500 cells are seeded into each well of a 6-well plate and allowed to attach for 24 hours before drug treatment. The following day, cells are treated with either the appropriate dose of drug or an equivalent volume of DMSO (two replicates were treated for each condition). For each condition, depleted media was replaced with fresh media containing the equivalent drug dose four days after initial treatment. Cells are harvested either 7 (A549 luc) or 8 (H1650) days after initial treatment. Briefly, medium is aspirated from each well and the cells are washed twice with ice-cold PBS, then plates are allowed to dry at room temperature for 4 hours. Cells are fixed for one hour in a fixing solution consisting of 10% methanol and 10% glacial acetic acid in distilled water, then stained overnight in 1% (w/v) crystal violet dissolved in methanol. The next day, staining solution is aspirated from the wells and plates are washed gently with distilled water to remove excess stain before colony counting. Colonies are imaged on a ChemiDoc XRS+ (Bio-Rad) and images are exported as 8-bit TIFF files. Colonies are counted using the Colony Counter plugin in ImageJ, with colony size defined as between 4 and 400 square pixels, and minimum circularity set at 0.6. Duplicate wells are averaged to obtain a single value for each condition. Results (number of colonies) for A549 luc cells and results (number of colonies) for H1650 cells may be analyzed separately.

The test system of data set [3] is H1650 cells. Nature of the data set: Colony formation (clonogenic) assay, H1650 cells. It is filed as cell-based. The note with it: Homo sapiens, NCI-H1650, 192 h; H1650, harvested 8 days after initial treatment. The procedure:
as §1, §2

For data set [4], the system named is lung cancer cell line H441. Nature of the data set: In vivo cancer model: subcutaneous xenograft of lung cancer cell line H441, tumor volume. Details: species or system mice; key to Mean Tumor Volume(T) / Median Tumor Volume(T): tumor volume in mm³. The note with it: oral gavage, 30 days; for Mean Tumor Volume(T) / Median Tumor Volume(T): in mm³ (unit assumed). On the procedure: (§3) To assess the in vivo effects of the compounds, subcutaneous xenograft of lung cancer cell line H441 was generated. Cells (5×10^6) were injected into the right flank of 6- to 8-week-old male BALB/c nu/nu mice (Charles River, Wilmington, Mass.). Tumor volume was assessed twice a week by caliper measurement. Mice were randomized to treatment groups based on initial tumor volume average of 100 mm^3 per group. Mice were dosed by oral gavage with 15 mg/kg Example 1a QD, 15 mg/kg Example 1a BID, 50 mg/kg Example 1a QD, or 50 mg/kg Example 3a QD. Mouse tumors were measured twice a week for the duration of the study. Mouse body weights were recorded weekly and percentage of mice body weights during treatment was calculated as: weight at each time point/initial weight×100. […] Mice underwent treatment for 30 days and were sacrificed 2 hours after the last dose. Tumors were then excised and cut for both formalin-fixation and snap frozen in liquid nitrogen. […] No statistically significant toxicity was observed as judged from animal body weights of compound treated groups versus vehicle control group as shown in Table B below.

Data set [5] in a line: In vivo cancer model: body weights and signs of toxicity. Details: species or system mice. The note with it: for % T/C (Mean body weight) / % T/C (Median body weight) / Mean body weight / Median body weight: oral gavage; for signs of toxicity (mucous diarrhea, abdominal stiffness and weight loss): oral gavage 15 or 50 mg/kg, 30 days, BALB/c nu/nu mice. On the procedure:
as §3

The mark [6] stands for this setting: 50 mg/kg QD, H441 xenograft mice.

Molecules are shown by their SMILES.

We go through 14 molecules from US9937186B2, “Sulfonamides derived from tricyclyl-2-aminocycloalkanols as anticancer agents” (ICAHN SCHOOL OF MEDICINE AT MOUNT SINAI, priority 2014, dated 2018).

The term GI50 denotes the concentration giving 50% growth inhibition. One may read the IC50 as the concentration that gives 50% inhibition.

Turning to `O=S(=O)(N[C@@H]1CCCC(N2c3ccccc3Oc3ccccc32)[C@H]1O)c1ccc(OC(F)(F)F)cc1` (mixture of isomers) [Example 1, N-(2-hydroxy-3-(10H-phenoxazin-10-yl)cyclohexyl)-4-(trifluoromethoxy)benzenesulfonamide], the GI50 in data set [1] was determined as 5 µM; in data set [2] it was 7.5 µM; in data set [3] it was 5 µM. Further, inhibition in data set [1] was half-maximal at 5 µM (IC50).

On to `O=S(=O)(N[C@@H]1CCCC(n2c3ccccc3c3ccccc32)[C@H]1O)c1ccc(OC(F)(F)F)cc1` (mixture of isomers) [Example 3, (1S,2S,3R)-rel-N-(3-(9H-carbazol-9-yl)-2-hydroxycyclohexyl)-4-(trifluoromethoxy)benzenesulfonamide], for which the GI50 in data set [1] was 10 µM; in data set [2] it was 7.5 µM; in data set [3], 5 µM. This molecule returned an IC50 in data set [1] of 10 µM.

On to `COc1ccc(S(=O)(=O)N[C@@H]2CCCC(n3c4ccccc4c4ccccc43)[C@H]2O)cc1` (relative stereo) [Example 6, N-((1S,2S,3R)-rel-3-(9H-carbazol-9-yl)-2-hydroxycyclohexyl)-4-methoxybenzenesulfonamide], for which, in data set [1], growth was halved (GI50) at 20 µM and the IC50 stood at 20 µM.

`O=S(=O)(N[C@@H]1CCCC(n2c3ccccc3c3ccccc32)[C@H]1O)c1ccccc1` (relative stereo) [Example 7, N-((1S,2S,3R)-rel-3-(9H-carbazol-9-yl)-2-hydroxycyclohexyl) benzenesulfonamide]: in data set [1], halving of growth (GI50) required 25 µM and inhibition was half-maximal at 25 µM (IC50).

In the case of `CN1C(=O)c2ccccc2N(C2CCC[C@@H](NS(=O)(=O)c3ccc(OC(F)(F)F)cc3)[C@@H]2O)c2ccccc21` (relative stereo) [Example 8, 4-Trifluoromethoxy-N-((1S,2S,3R)-rel-2-hydroxy-3-(10-methyl-11-oxo-10,11-dihydro-5H-dibenzo[b,e][1,4]diazepin-5-yl)cyclohexyl)benzenesulfonamide], in data set [1], the GI50 came to 15 µM and the IC50 came out at 15 µM.

In data set [1], `CN1C(=O)c2ccccc2N(C2CCC[C@@H](NS(=O)(=O)c3ccc(Cl)cc3)[C@@H]2O)c2ccccc21` (relative stereo) [Example 9, 4-Chloro-N-((1S,2S,3R)-rel-2-hydroxy-3-(10-methyl-11-oxo-10,11-dihydro-5H-dibenzo[b,e][1,4]diazepin-5-yl)cyclohexyl)benzenesulfonamide] had a GI50 of 25 µM and an IC50 of 25 µM.

Consider `O=S(=O)(N[C@@H]1CCC[C@H](N2c3ccccc3Oc3ccccc32)[C@H]1O)c1ccc(OC(F)(F)F)cc1` (single isomer, unassigned) [Example 1a], for which the “% T/C (Mean Tumor Volume)” value in data set [4] (15 mg/kg BID) was 26.08%; in data set [4] (15 mg/kg QD) it was 61.43%; in data set [4] (50 mg/kg QD) it was 36.50%. The “% T/C (Median Tumor Volume)” value in data set [4] (15 mg/kg BID) turned out to be 27.37%; in data set [4] (15 mg/kg QD), 60.69%; in data set [4] (50 mg/kg QD), 33.78%. The “Mean Tumor Volume(T)” value in data set [4] (15 mg/kg BID) is on record as 315.40; in data set [4] (15 mg/kg QD), 742.80; in data set [4] (50 mg/kg QD, BALB/c nu/nu mice), 441.37. The results for the “Median Tumor Volume(T)” value in data set [4] (15 mg/kg BID), in data set [4] (15 mg/kg QD) and in data set [4] (50 mg/kg QD) were 274.43, 608.58 and 338.69, respectively. In addition, the 50% growth inhibitory concentration (GI50) in data set [1] was 5 µM; in data set [2], 7.5 µM; in data set [3] it was 5 µM. Moreover, the “% T/C (Mean body weight)” value is 95.27% in data set [5] (15 mg/kg BID), 95.27% in data set [5] (15 mg/kg QD) and 100.59% in data set [5] (50 mg/kg QD). Moreover, the “% T/C (Median body weight)” value came out at 99.58% in data set [5] (15 mg/kg BID), 93.68% in data set [5] (15 mg/kg QD) and 99.72% in data set [5] (50 mg/kg QD). The results for the Mean body weight in data set [5] (15 mg/kg BID), in data set [5] (15 mg/kg QD) and in data set [5] (setting [6]) were 33.20 g, 33.20 g and 35.06 g, respectively. The Median body weight is recorded as 35.45 g in data set [5] (15 mg/kg BID), 33.35 g in data set [5] (15 mg/kg QD) and 35.50 g in data set [5] (50 mg/kg QD). Also, the “signs of toxicity (mucous diarrhea, abdominal stiffness and weight loss)” value in data set [5] is reported as “no adverse signs were observed”.

`O=S(=O)(N[C@H]1CCC[C@@H](N2c3ccccc3Oc3ccccc32)[C@@H]1O)c1ccc(OC(F)(F)F)cc1` (single isomer, unassigned) [Example 1b]: the GI50 was 5 µM in data set [1], 7.5 µM in data set [2] and 5 µM in data set [3].

With `O=S(=O)(N[C@@H]1CCC[C@H](n2c3ccccc3c3ccccc32)[C@H]1O)c1ccc(OC(F)(F)F)cc1` (single isomer, unassigned) [Example 3a], in data set [4] (50 mg/kg QD), the “% T/C (Mean Tumor Volume)” value turned out to be 32.13%, the “% T/C (Median Tumor Volume)” value is reported as 37.62% and the “Median Tumor Volume(T)” value is 377.21. Also, in data set [4] (50 mg/kg QD, BALB/c nu/nu mice), the “Mean Tumor Volume(T)” value is recorded as 388.47. Further, halving of growth in data set [1] (GI50) required 10 µM. Further, in data set [5] (50 mg/kg QD), the “% T/C (Mean body weight)” value is reported as 93.96%, the “% T/C (Median body weight)” value stood at 92.70% and the Median body weight worked out at 33.00 g. Further, the Mean body weight in data set [5] (setting [6]) amounted to 32.74 g. In data set [5], the “signs of toxicity (mucous diarrhea, abdominal stiffness and weight loss)” value was “no adverse signs were observed”. The same molecule came in with a GI50 in data set [2] of 7.5 µM. For the same molecule, halving of growth in data set [3] (GI50) required 5 µM.

With `O=S(=O)(N[C@H]1CCC[C@@H](n2c3ccccc3c3ccccc32)[C@@H]1O)c1ccc(OC(F)(F)F)cc1` (single isomer, unassigned) [Example 3b], the GI50 was found to be 10 µM in data set [1], 10 µM in data set [2] and 7.5 µM in data set [3].

For `O=S(=O)(N[C@H]1CCC[C@@H](n2c3ccccc3c3cc(F)ccc32)[C@@H]1O)c1ccc(OC(F)(F)F)cc1` (stereo in doubt) [Example 31b, N-((1S,2S,3R)-3-(3-fluoro-9H-carbazol-9-yl)-2-hydroxycyclohexyl)-4-(trifluoromethoxy)benzenesulfonamide], the 50% growth inhibitory concentration (GI50) in data set [1] turned out to be 5 µM.

In data set [1], `O=S(=O)(N[C@H]1CCC[C@@H](n2c3ccccc3c3cc(F)ccc32)[C@@H]1O)c1ccc(OC(F)(F)F)cc1` [Example 31a, N-((1S,2S,3R)-3-(3-fluoro-9H-carbazol-9-yl)-2-hydroxycyclohexyl)-4-(trifluoromethoxy)benzenesulfonamide] returned a 50% growth inhibitory concentration (GI50) of 5 µM.

`O=S(=O)(N[C@H]1CCC[C@@H](n2c3ccc(F)cc3c3cc(F)ccc32)[C@@H]1O)c1ccc(OC(F)(F)F)cc1` [Example 32a, N-((1S,2S,3R)-3-(3,6-difluoro-9H-carbazol-9-yl)-2-hydroxycyclohexyl)-4-(trifluoromethoxy)benzenesulfonamide] gave a GI50 in data set [1] of 5 µM.

`O=S(=O)(N[C@@H]1CCC[C@H](n2c3ccc(F)cc3c3cc(F)ccc32)[C@H]1O)c1ccc(OC(F)(F)F)cc1` [Example 32b] registered a GI50 in data set [1] of 5 µM.
